Molecules are shown by their SMILES. Structures can show the parent of a compound that is named as a salt.

For experiment [1], the target named is T1, NMDA receptor subunits 1A/2A (Rattus norvegicus, UniProt P35439+Q00959).
T1 construct: expressed in transfected cells; host or cells: Xenopus laevis oocytes (cRNA injection; clones from Dr. P. H. Seeburg)
Kind of experiment: Electrophysiological assay at NMDA receptor subunits expressed in Xenopus oocytes, 1A/2A. Format: cell-based. The following applies: glutamate 100 μm and glycine 1-100 μm. The gist of the method:
(§1)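 Two-electrode voltage clamp of Xenopus oocytes injected with rat NR1A plus NR2A, 2B or 2C cRNA (1:1), recorded 3–21 days post-injection in Ringer's, pH 7.4. Currents evoked by glutamate (100 μm) with glycine (1–100 μm); antagonist applied by bath perfusion at rising concentrations, IC50 from logistic fit or linear regression for incomplete curves.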

For experiment [2], the target named is T2, NMDA receptor subunits 1A/2B (Rattus norvegicus, UniProt P35439+Q00960).
T2 construct: expressed in transfected cells; host or cells: Xenopus laevis oocytes (cRNA injection; clones from Dr. P. H. Seeburg)
T2 sequence (Q00960 27-1482, other chains not shown): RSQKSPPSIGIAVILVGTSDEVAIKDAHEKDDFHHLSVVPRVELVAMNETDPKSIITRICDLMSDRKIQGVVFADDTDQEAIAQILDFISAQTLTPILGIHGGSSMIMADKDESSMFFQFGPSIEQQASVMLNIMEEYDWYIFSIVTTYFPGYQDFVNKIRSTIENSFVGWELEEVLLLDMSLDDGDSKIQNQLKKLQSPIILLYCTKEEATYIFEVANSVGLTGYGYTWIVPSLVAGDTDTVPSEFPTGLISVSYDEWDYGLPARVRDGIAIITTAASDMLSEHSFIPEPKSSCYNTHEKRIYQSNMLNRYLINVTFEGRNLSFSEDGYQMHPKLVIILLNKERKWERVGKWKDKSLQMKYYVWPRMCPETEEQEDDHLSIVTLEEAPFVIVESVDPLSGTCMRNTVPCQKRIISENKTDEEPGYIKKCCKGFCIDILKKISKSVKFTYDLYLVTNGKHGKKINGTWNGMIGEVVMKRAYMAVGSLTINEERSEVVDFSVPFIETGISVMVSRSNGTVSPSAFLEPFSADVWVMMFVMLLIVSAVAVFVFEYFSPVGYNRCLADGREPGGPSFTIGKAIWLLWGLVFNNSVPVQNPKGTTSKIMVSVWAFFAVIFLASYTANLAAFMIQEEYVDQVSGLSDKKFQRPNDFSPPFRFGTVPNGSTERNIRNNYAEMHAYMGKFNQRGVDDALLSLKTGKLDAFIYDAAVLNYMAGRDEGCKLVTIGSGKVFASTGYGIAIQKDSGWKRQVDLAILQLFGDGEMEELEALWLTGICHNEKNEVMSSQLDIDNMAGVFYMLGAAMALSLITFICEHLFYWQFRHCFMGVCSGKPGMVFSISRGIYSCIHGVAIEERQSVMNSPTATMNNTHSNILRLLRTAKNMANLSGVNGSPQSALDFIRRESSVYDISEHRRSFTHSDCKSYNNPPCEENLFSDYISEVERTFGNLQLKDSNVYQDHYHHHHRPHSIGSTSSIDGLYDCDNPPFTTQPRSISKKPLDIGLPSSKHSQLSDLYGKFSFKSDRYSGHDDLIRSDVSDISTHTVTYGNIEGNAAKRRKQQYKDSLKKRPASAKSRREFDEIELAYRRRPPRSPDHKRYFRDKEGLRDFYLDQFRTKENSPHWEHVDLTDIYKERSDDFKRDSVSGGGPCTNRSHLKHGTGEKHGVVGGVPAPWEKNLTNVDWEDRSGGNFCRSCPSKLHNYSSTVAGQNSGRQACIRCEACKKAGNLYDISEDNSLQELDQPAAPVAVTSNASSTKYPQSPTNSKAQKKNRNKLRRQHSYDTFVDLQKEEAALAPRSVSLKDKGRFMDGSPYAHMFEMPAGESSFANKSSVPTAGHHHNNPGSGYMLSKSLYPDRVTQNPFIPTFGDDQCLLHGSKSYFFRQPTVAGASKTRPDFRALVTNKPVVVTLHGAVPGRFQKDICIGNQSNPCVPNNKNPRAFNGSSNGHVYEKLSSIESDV
Description: Electrophysiological assay at NMDA receptor subunits expressed in Xenopus oocytes, 1A/2B. Format: cell-based. The following applies: Xenopus oocytes; glutamate 100 μm and glycine 1-100 μm; read-out: Subunits IC50, 1A/2B. The gist of the method:
as §1

In experiment [3] the target is T3, NMDA receptor subunits 1A/2C (Rattus norvegicus, UniProt P35439+Q00961).
T3 construct: expressed in transfected cells; host or cells: Xenopus laevis oocytes (cRNA injection; clones from Dr. P. H. Seeburg)
T3 sequence (Q00961 20-1237, other chains not shown): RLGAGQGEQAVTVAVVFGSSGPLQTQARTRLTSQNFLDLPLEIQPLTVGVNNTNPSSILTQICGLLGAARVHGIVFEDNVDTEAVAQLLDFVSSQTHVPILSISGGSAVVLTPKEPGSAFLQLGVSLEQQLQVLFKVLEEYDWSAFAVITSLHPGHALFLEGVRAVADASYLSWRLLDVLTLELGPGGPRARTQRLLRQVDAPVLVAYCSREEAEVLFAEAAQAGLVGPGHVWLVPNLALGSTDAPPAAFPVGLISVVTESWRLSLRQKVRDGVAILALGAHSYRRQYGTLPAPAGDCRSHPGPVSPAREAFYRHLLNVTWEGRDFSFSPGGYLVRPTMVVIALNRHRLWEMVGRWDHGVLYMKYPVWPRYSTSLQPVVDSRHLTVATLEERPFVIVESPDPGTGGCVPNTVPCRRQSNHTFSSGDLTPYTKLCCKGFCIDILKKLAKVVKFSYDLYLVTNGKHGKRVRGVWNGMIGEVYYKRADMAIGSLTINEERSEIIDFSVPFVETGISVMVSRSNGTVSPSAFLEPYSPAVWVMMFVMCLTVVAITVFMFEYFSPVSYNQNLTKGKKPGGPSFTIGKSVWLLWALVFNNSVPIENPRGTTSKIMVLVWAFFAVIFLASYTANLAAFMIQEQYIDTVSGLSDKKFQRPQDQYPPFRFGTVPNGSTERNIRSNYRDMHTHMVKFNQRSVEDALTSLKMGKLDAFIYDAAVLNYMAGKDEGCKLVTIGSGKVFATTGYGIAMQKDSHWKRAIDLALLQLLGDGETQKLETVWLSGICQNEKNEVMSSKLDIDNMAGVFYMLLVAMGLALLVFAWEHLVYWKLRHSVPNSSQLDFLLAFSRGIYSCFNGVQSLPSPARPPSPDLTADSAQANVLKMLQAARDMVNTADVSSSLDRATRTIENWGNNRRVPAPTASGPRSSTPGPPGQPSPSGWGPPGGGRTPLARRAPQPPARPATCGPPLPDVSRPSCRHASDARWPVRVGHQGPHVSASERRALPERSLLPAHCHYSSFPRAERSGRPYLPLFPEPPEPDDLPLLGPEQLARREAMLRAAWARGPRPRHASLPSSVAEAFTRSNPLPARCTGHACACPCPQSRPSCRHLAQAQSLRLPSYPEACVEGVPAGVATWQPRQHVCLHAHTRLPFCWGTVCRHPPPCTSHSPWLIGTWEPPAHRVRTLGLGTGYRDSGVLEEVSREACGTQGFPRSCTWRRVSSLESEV
Kind of experiment: Electrophysiological assay at NMDA receptor subunits expressed in Xenopus oocytes, 1A/2C. Type of experiment: cell-based. The following applies: Xenopus oocytes; glutamate 100 μm and glycine 1-100 μm; read-out: Subunits IC50, 1A/2C. In outline: as §1

Experiment [4] relates to Maximal Electroshock-induced Seizures. Kind of experiment: Maximal electroshock-induced seizures (MES). Format: in vivo. To be noted: Mus musculus; mice; 50 mA, 60 pulses/sec, 1 sec. (In general: The maximal electroshock test induces tonic seizures with an electrical stimulus.)
Description: Seizures were induced by application of current (50 mA, 60 pulses/sec, 0.8 sec pulse width, 1 sec duration, d.c.) through saline-coated corneal electrodes using a Ugo Basile ECT device (Model 7801). […] A tonic seizure was defined as a hindlimb extension in excess of 90 degrees from the plane of the body.

T1 sequence (Q00959 20-1464 limits assumed, other chains not shown): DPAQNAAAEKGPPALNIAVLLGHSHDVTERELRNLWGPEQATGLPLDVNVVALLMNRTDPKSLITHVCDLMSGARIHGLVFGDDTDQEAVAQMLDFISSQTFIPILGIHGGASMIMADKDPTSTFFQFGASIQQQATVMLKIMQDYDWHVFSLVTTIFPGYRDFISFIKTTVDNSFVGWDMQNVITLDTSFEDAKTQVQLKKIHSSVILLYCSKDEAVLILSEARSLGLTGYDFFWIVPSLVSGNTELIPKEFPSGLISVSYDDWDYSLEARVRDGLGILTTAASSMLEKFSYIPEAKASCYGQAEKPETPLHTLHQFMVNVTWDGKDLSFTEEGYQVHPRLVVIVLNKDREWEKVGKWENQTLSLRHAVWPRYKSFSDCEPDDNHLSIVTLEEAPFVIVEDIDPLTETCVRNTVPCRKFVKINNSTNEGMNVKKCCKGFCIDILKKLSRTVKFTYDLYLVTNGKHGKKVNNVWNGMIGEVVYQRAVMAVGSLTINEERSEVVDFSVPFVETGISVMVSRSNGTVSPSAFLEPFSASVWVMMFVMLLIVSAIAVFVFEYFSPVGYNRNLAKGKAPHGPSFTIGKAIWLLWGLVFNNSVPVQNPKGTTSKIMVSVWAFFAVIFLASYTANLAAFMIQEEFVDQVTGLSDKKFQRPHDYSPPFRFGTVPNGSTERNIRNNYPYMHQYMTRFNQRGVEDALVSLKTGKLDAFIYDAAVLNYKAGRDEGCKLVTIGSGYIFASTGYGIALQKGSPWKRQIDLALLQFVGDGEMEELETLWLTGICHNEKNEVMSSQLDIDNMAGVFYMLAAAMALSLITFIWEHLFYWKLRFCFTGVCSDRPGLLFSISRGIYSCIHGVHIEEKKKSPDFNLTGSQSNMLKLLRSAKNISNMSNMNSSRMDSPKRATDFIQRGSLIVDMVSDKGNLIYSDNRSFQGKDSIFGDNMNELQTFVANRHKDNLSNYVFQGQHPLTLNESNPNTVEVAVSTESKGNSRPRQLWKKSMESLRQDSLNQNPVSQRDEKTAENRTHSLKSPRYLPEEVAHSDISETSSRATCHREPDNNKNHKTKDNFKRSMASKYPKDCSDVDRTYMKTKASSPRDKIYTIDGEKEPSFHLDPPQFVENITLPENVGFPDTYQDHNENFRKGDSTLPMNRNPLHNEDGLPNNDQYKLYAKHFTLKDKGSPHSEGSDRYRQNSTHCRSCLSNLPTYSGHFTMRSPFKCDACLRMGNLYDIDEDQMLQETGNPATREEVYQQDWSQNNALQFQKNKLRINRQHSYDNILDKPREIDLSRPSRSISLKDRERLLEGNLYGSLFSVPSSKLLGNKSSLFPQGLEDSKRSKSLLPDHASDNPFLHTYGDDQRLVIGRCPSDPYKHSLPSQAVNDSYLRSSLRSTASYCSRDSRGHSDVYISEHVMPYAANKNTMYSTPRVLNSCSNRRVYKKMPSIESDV

In general, ED50 refers to the midpoint of the dose-response relation. Read a low ED50 as greater potency. On to `c1ccc(CC2CCN(CCCOc3ccccc3)CC2)cc1` [Ex. 2, 4-Benzyl-1-(3-phenoxypropyl)piperidine], for which the figures for the IC50 in experiment [1], in experiment [2] and in experiment [3] were 89 µM, 1.1 µM and over 100 µM, respectively. Moreover, the ED50 in experiment [4] was determined as 3 mg/kg.
For `OC(COc1cccc2ccccc12)CN1CCC(Cc2ccccc2)CC1` (stereo not shown) [Ex. 3, 4-Benzyl-1-[2-hydroxy-3-(1-naphthyloxy)propyl]piperidine], in that order: 35 µM, 2.8 µM, over 100 µM and 2 mg/kg.
On to `Br.Br.Nc1ccc(OCCN2CCC(Cc3ccccc3)CC2)cc1` [Ex. 13, 1-(2-(4-Aminophenoxy)ethyl)-4-benzylpiperidine dihydrobromide], for which the figures for the IC50 in experiment [1], in experiment [2] and in experiment [3] were 90 µM, 1.3 µM and over 100 µM, respectively. For the same molecule, in experiment [4], it took a dose of 6 mg/kg to reach the 50% effect level (ED50).
For `OCCc1cccc(OCCN2CCC(Cc3ccccc3)CC2)c1` [Ex. 18, 4-Benzyl-1-(2-(3-(2-hydroxyethyl)phenoxy)ethyl)piperidine], in that order: 60 µM, 0.4 µM, over 100 µM and 6 mg/kg.
Turning to `Fc1cccc(OCCCN2CCC(Cc3ccccc3)CC2)c1` [Ex. 22, 4-Benzyl-1-(3-(3-fluorophenoxy)propyl)piperidine hydrobromide], the IC50 in experiment [1] is 90 µM; in experiment [2], 0.9 µM; in experiment [3], over 100 µM. This molecule showed a median effective dose (ED50) in experiment [4] of 4 mg/kg.
The corresponding values for `Clc1ccc(CC2CCN(CCOc3ccccc3)CC2)cc1` [Ex. 24, 4-(4-Chlorobenzyl)-1-(2-phenoxyethyl)piperidine hydrochloride] are 70 µM, 1 µM, 100 µM and 2 mg/kg.
The corresponding values for `Br.Br.Nc1ccc(OCCN2CCC(Cc3ccc(Cl)cc3)CC2)cc1` [Ex. 28, 1-(2-(4-Aminophenoxy)ethyl)-4-(4-chlorobenzyl)piperidine dihydrobromide] are 38 µM, 0.4 µM, over 100 µM and 5 mg/kg.
Regarding `Clc1ccc(CC2CCN(CCCOc3ccccc3)CC2)cc1` [Ex. 30, 4-(4-Chlorobenzyl)-1-(3-phenoxypropyl)piperidine hydrobromide], the IC50 in experiment [1] stood at 50 µM; in experiment [2], 0.8 µM; in experiment [3], 100 µM. In experiment [4], this molecule returned a 50% effective dose (ED50) of 6 mg/kg.
Turning to `Fc1cccc(OCCCN2CCC(Cc3ccc(Cl)cc3)CC2)c1` [Ex. 31, 4-(4-Chlorobenzyl)-1-(3-(3-fluorophenoxy)propyl)piperidine hydrobromide], the values for the IC50 in experiment [1], in experiment [2] and in experiment [3] were 34 µM, 0.9 µM and 60 µM, respectively. The ED50 in experiment [4] worked out at 7.5 mg/kg.
As for `Fc1ccc(OCCN2CCC(Nc3ccc(Cl)cc3)CC2)cc1` [Ex. 38, 4-(4-Chloroanilino)-1-(2-(4-fluorophenoxy)ethyl)piperidine dihydrochloride], the IC50 in experiment [1] was 75 µM; in experiment [2], 45 µM; in experiment [3], over 100 µM. The molecule also yielded an ED50 in experiment [4] of 10 mg/kg.
For `Clc1ccc(NC2CCN(CCCOc3ccccc3)CC2)cc1` [Ex. 40, 4-(N-(4-Chloroanilino)-1-(3-phenoxypropyl)piperidine hydrobromide], the IC50 came to 80 µM in experiment [1], 3 µM in experiment [2] and 100 µM in experiment [3]. For the same molecule, the ED50 in experiment [4] came out at 2.5 mg/kg.
As to `OC1(Cc2ccccc2)CCN(CCOc2ccccc2)CC1` [Ex. 47, 4-Benzyl-4-hydroxy-1-(2-phenoxyethyl)piperidine hydrochloride], the results for the IC50 in experiment [1], in experiment [2] and in experiment [3] were 85 µM, 3 µM and over 100 µM, respectively. The same molecule came in with an ED50 in experiment [4] of 3.2 mg/kg.
For `O=c1[nH]c2cccc(OCCN3CCC(Cc4ccccc4)CC3)c2[nH]1` [Ex. 55, 4-Benzyl-1-[2-(2-oxobenzimidazol-4-oxy)ethyl]piperidine], in that order: 50 µM, 0.11 µM, over 100 µM and 6 mg/kg.
Take `Nc1ccc(OCCN2CCC(Cc3ccccc3)CC2)cc1N` [Ex. 57, 4-Benzyl-1-[2-(3,4-diaminophenoxy)ethyl]piperidine]: the IC50 in experiment [2] is 0.3 µM; in experiment [3], over 100 µM. Besides, it took a dose of 6.5 mg/kg to reach the 50% effect level in experiment [4] (ED50).
For `O=c1[nH]c2ccc(OCCN3CCC(Cc4ccccc4)CC3)cc2[nH]c1=O` [Ex. 58, 4-Benzyl-1-[2-(2,3-dioxoquinoxalin-6-oxy)ethyl]piperidine], the IC50 in experiment [1] is 25 µM; in experiment [2], 0.1 µM; in experiment [3] it was over 100 µM. In experiment [4], this molecule displayed an ED50 of 5.1 mg/kg.
For the molecule `O=c1[nH]c2ccc(OCCN3CCC(Cc4ccccc4)CC3)cc2[nH]1` [Ex. 59, 4-Benzyl-1-[2-(2-oxobenzimidazol-5-oxy)ethyl]piperidine], the values for the IC50 in experiment [1], in experiment [2] and in experiment [3] were 75 µM, 0.024 µM and over 100 µM, respectively. The 50% effect level in experiment [4] (ED50) was put at a dose of 1 mg/kg.
Regarding `Nc1ccccc1OCCN1CCC(Cc2ccccc2)CC1` [Ex. 61, 4-Benzyl-1-[2-(2-aminophenoxy)ethyl]piperidine], the IC50 in experiment [2] is 0.3 µM; in experiment [3], over 100 µM. In experiment [4], the 50% effect level (ED50) was put at a dose of 2.5 mg/kg.
In the case of `Nc1cccc(OCCN2CCC(Cc3ccccc3)CC2)c1` [Ex. 63, 4-Benzyl-1-[2-(3-aminophenoxy)ethyl]piperidine], the IC50 is 0.5 µM in experiment [2] and over 100 µM in experiment [3]. This molecule yielded a median effective dose (ED50) in experiment [4] of 3 mg/kg.
Consider `COc1ccc(OCCN2CCC(Cc3ccccc3)CC2)cc1` [Ex. 70], for which the IC50 was 1 µM in experiment [2] and over 100 µM in experiment [3]. For the same molecule, the ED50 in experiment [4] was found to be 1.5 mg/kg.
On to `O=[N+]([O-])c1ccccc1OCCN1CCC(Cc2ccc(Cl)cc2)CC1` [Ex. 73, 4-(4-Chlorobenzyl)-1-[2-(2-nitrophenoxy)ethyl]piperidine], for which the figures for the IC50 in experiment [1], in experiment [2] and in experiment [3] were 30 µM, 8 µM and 100 µM, respectively. The ED50 in experiment [4] was 8 mg/kg.
Turning to `Nc1ccccc1OCCN1CCC(Cc2ccc(Cl)cc2)CC1` [Ex. 74, 4-(4-Chlorobenzyl)-1-[2-(2-aminophenoxy)ethyl]piperidine], the results for the IC50 in experiment [1], in experiment [2] and in experiment [3] were 60 µM, 3 µM and over 100 µM, respectively. The same molecule gave an ED50 in experiment [4] of 3.5 mg/kg.
The corresponding values for `O=c1[nH]c2cccc(OCCN3CCC(Cc4ccc(Cl)cc4)CC3)c2[nH]1` [Ex. 77, 4-(4-Chlorobenzyl)-1-[2-(2-oxobenzimidazol-4-oxy)ethyl]piperidine] are 50 µM, 0.11 µM, over 100 µM and 6 mg/kg.
Turning to `c1ccc(CCN2CCC(Cc3ccccc3)CC2)cc1` [Ex. 83, 4-Benzyl-1-(2-phenylethyl)piperidine hydrochloride], the IC50 is 1 µM in experiment [2] and over 100 µM in experiment [3]. In experiment [4], this molecule came in with an ED50 of 2 mg/kg.
For the molecule `OC1(Cc2ccccc2)CCN(CCc2ccccc2)CC1` [Ex. 90, 4-Benzyl-4-hydroxy-1-(2-phenylethyl)piperidine hydrochloride], the values for the IC50 in experiment [2] and in experiment [3] were 5 µM and over 100 µM, respectively. Moreover, in experiment [4], the ED50 was found to be 5 mg/kg.
For `O=c1[nH]c2ccccc2n1C1CCN(CCCOc2ccccc2)CC1` [Ex. 96, 4-(2-Keto-1-benzimidazolinyl)-1-(3-phenoxypropyl)piperidine hydrobromide], in that order: 17 µM, over 100 µM and 3.5 mg/kg.
On to `Cl.Oc1ccc(OCCN2CCC(Cc3ccccc3)CC2)cc1` [Ex. 99, 1-[2-(4-hydroxyphenoxy)ethyl]-4-benzylpiperidine hydrochloride], for which the IC50 in experiment [1] was over 300 µM; in experiment [2], 0.03 µM; in experiment [3], over 300 µM. This molecule gave a median effective dose (ED50) in experiment [4] of 2 mg/kg.
Consider `Oc1ccc(OCCN2CCC(Cc3ccc(Cl)cc3)CC2)cc1` [Ex. 101, hydrochloride], for which the IC50 in experiment [1] amounted to 55 µM; in experiment [2], 0.05 µM; in experiment [3], 240 µM. In experiment [4], this molecule yielded an ED50 of 3 mg/kg.
For `Oc1ccc(OCCN2CCC(Cc3ccc(F)cc3)CC2)cc1` [Ex. 102, 1-[2-(4-Hydroxyphenoxy)ethyl]-4-(4-fluorobenzyl)piperidine hydrochloride], in that order: 60 µM, 0.02 µM, 290 µM and 3 mg/kg.
Consider `Fc1ccc(OCCN2CCC(Cc3ccccc3)CC2)cc1` [Ex. 103, 4-Benzyl-1-(2-(4-fluorophenoxy)ethyl)piperidine hydrochloride], for which the IC50 is 95 µM in experiment [1], 1 µM in experiment [2] and over 300 µM in experiment [3]. Besides, the ED50 in experiment [4] was 3 mg/kg.
As to `Oc1ccc(OCCN2CCC(Cc3ccc4c(c3)CCCC4)CC2)cc1` [Ex. 139, 4-((5,6,7,8-Tetrahydro-2-naphthyl)methyl)-1-(2-(4-hydroxyphenoxy)ethyl)piperidine hydrochloride], the IC50 in experiment [1] was 70 µM; in experiment [2], 0.25 µM. Further, the 50% effect level in experiment [4] (ED50) was put at a dose of 4.5 mg/kg.
With `Cl.Oc1ccc(OCCN2CCC(Cc3ccc(F)cc3)CC2)cc1F` [Ex. 150, 1-[2-(4-Hydroxy-3-fluorophenoxy)ethyl]-4-(4-fluorobenzyl)piperidine hydrochloride], the IC50 in experiment [2] is 0.02 µM; in experiment [3] it was over 300 µM. The ED50 in experiment [4] was 3 mg/kg.

These data come from patent publication US6124323A, “4-substituted piperidine analogs and their use as subtype selective NMDA receptor antagonists” (Warner-Lambert Company, priority 1998, dated 2000).
